“And” between values parts separate entries of the source, which are not always exact repeats. Identical values can stand only once.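 Protocol summary: plate cells (96-well), add compound at 5 concentrations, incubate 48 h, interpolate endpoints linearly. At the GI50, growth is halved. TGI: concentration producing complete growth inhibition.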
Tested on: UACC-62 melanoma
Experiment: NCI tumour cell line growth inhibition, 48 h

| Compound | GI50 | TGI |
| --- | --- | --- |
| Nc1cc2c(cc1Br)[nH]c(=O)c1ccccc12 | 6.02 µM | 20.1 µM |
| COc1ccc(-c2nccn2-c2ccc(OC)cc2)cc1 | 13.9 µM | 48.9 µM |
| O=C(/C=C/c1ccccc1)c1ccccc1 | – | > 10 µM |
| CC(C)[C@H](O)C(=O)N[C@@H](C)C(=O)N[C@@H]1C(=O)N(C)CCc2ccccc21 | > 100 µM | > 100 µM |
| CC(C)=C1CCC(CN(C)C)C1=O (stereo unspecified) | – | 35.1 µM |
| COc1ccc(-c2cnnn2-c2nonc2-n2cccc2)cc1 | 0.529 µM | 28.2 µM |
| COc1cccc(/C=N/[N-]C(=O)c2ccncc2)c1[O-].COc1cccc(/C=N/[N-]C(=O)c2ccncc2)c1[O-].[O]=[U](=[O])([OH2+])[OH2+] | 3.66 µM | 19.4 µM |
| ClC(Cl)=C1C(=C(Cl)Cl)C(Cl)(Cl)C1(Cl)Cl | – | 5.36 µM |
| C#CCOc1cccc(Nc2ncnc3c(NC(=O)C=C)cccc23)c1 | 12.3 µM | 37.3 µM |
| CO[C@H]1Nc2c(ccc(C)c2O)C(=O)N2C=C(/C=C/C(N)=O)C[C@@H]12 | – | 0.036 µM |
| CCNC(=O)/C(=C/c1ccc(OC)cc1)c1cc(OC)c(OC)c(OC)c1 | – | > 100 µM |
| CCCc1cc(=O)n2c(C(=O)Nc3ccc(Cl)cc3C)c(C(=O)Nc3ccc(F)cc3)sc2n1 | 2.02 µM | 12.1 µM |
| Cc1ccc(OCCOCCOCCOCCOc2ccc(C)n(O)c2=S)c(=S)n1O | 0.115 µM | 40.5 µM |
| N#CC(=Nc1ccccc1N(C(=O)c1ccccc1)C(=O)c1ccccc1)c1ccccc1 | – | > 100 µM |
| COC(=O)C(=O)C(C(C)=O)C(=O)NCc1ccc(OC)c(OC)c1 (stereo unspecified) | – | > 100 µM |
| COc1ccc(-c2ccc3c(N4CCOC[C@@H]4C)nc(N4CCOC[C@@H]4C)nc3n2)cc1CO | 0.00337 µM and 0.019 µM | – |
| CCOC(=O)NC(=O)c1cn(C(CC)COC(=O)NCCCCCCNC(=O)OCC(CC)n2cc(C(=O)NC(=O)OCC)c(=O)[nH]c2=O)c(=O)[nH]c1=O (stereo unspecified) | – | > 100 µM |
| N[C@H](CCC(=O)N[C@@H](Cc1c[nH]c2ccccc12)C(=O)O)C(=O)O | > 100 µM | > 100 µM |
| COc1ccc(-c2nc(-c3cc(OC)cc(OC)c3)[nH]c2-c2ccc(OC)cc2)cc1 | 4.75 µM | > 100 µM |
| Nc1ccccc1O.O.O=C(O)C1[O][Sb][O]C1C(=O)O (stereo unspecified) | 15.1 µM | 30.3 µM |
| O=C(CC(=O)C1CCOC1=O)C(=O)Nc1cccc(Cl)c1 (stereo unspecified) | – | > 100 µM |
| OC(c1cc(-c2ccc(C(F)(F)F)cc2)nc(C(F)(F)F)c1)C1CCCCN1 (stereo unspecified) | – | 3.02 µM and 3.51 µM |
| CC(C)CC(C/C=C1/CC(CO)(COC(=O)C(C)(C)C)OC1=O)CC(C)C (stereo unspecified) | – | 28.8 µM and 24.1 µM |
| Cc1cccc(C2=C/C(=C(\SS/C(C(=O)c3ccc(OCC(=O)O)c(Cl)c3Cl)=C3\C=C(c4cccc(C)c4)SS3)C(=O)c3ccc(OCC(=O)O)c(Cl)c3Cl)SS2)c1 | – | 38.5 µM |

Tested on: A498 renal
Experiment: NCI tumour cell line growth inhibition, 48 h

| Compound | GI50 | TGI |
| --- | --- | --- |
| O=C1CCCN1c1ccccc1I(=O)=O | > 100 µM | > 100 µM |
| O=C(NCc1ccc(Cn2c(=O)sn(-c3ccccc3)c2=O)cc1)OCc1ccc2cccc(O)c2n1 | 0.382 µM | 1.89 µM |
| COC(c1ccc(C(C)(C)C)cc1)(c1ccc(C(C)(C)C)cc1)c1ccc(C(C)(C)C)cc1 | – | > 100 µM |
| Nc1ccccc1C(=O)/C=C/c1c(O)ccc2ccccc12 | – | > 100 µM |
| CC(C)c1[nH]nc2c1N=C(c1ccccc1Cl)c1cc([N+](=O)[O-])ccc1N2 | 4.53 µM | 9.37 µM |
| Nc1cc2c(cc1Br)[nH]c(=O)c1ccccc12 | 3.91 µM | 29.8 µM |
| COc1ccc(-c2nccn2-c2ccc(OC)cc2)cc1 | 14.4 µM | 55.9 µM |
| O=C(/C=C/c1ccccc1)c1ccccc1 | – | > 10 µM |
| CC(C)[C@H](O)C(=O)N[C@@H](C)C(=O)N[C@@H]1C(=O)N(C)CCc2ccccc21 | > 100 µM | > 100 µM |
| CC(C)=C1CCC(CN(C)C)C1=O (stereo unspecified) | – | 36.9 µM |
| COc1ccc(-c2cnnn2-c2nonc2-n2cccc2)cc1 | 0.183 µM | 0.893 µM |
| COc1cccc(/C=N/[N-]C(=O)c2ccncc2)c1[O-].COc1cccc(/C=N/[N-]C(=O)c2ccncc2)c1[O-].[O]=[U](=[O])([OH2+])[OH2+] | 21.5 µM | 47.7 µM |
| ClC(Cl)=C1C(=C(Cl)Cl)C(Cl)(Cl)C1(Cl)Cl | – | 26 µM |

From PubChem BioAssay (NCI)
